Tested on: HL-60 cell line
Type: cell-based
Settings: free ligand

SMILES	activity of the ejected monodentate ligand (cell killing)
c1cnccn1 [pyrazine]	inactive
c1ccncc1 [pyridine]	inactive
